Measurements reported in patent publication US8952024B2, “Herbicidal pyrimidone derivatives” (E I du Pont de Nemours and Company, priority 2009, dated 2015).

How the values were obtained:
Assay type in all cases: in vivo
[1] = system: ducksalad (Heteranthera limosa); experiment: Test B flooded paddy test; conditions: for Plant response rating, Ducksalad: Flood (flooded paddy test), 13 to 15 days
In short: (§1)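 Flooded-pot test: water raised to 3 cm above soil when treating, compound put in the water, level unchanged thereafter. Plants were at 2 leaves. Readout after 13 to 15 days, visual, relative to controls; 0 signifies no effect and 100 complete control.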

[2] = system: barnyardgrass (Echinochloa crus-galli); experiment: Test B flooded paddy test; conditions: for Plant response rating, Barnyardgrass: Flood (flooded paddy test), 13 to 15 days
In short: as §1

rice (Oryza sativa) = experiment: Test B flooded paddy test; conditions: for Plant response rating, Rice: Flood (flooded paddy test), 13 to 15 days
In short: as §1

[3] = system: umbrella sedge (Cyperus difformis); experiment: Test B flooded paddy test; conditions: for Plant response rating, Sedge, Umbrella: Flood (flooded paddy test), 13 to 15 days
In short: as §1

corn (Zea mays) = experiment: Test B pre-/postemergence plant response
In short: (§2)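 Seeds were sown in loam soil/sand blend and treated preemergence with compound in non-phytotoxic solvent mixture containing surfactant; postemergence sprays, same formulation, went onto plants 2 to 18 cm (1- to 4-leaf stage) in peat-based planting medium. Greenhouse 13 to 15 days, then visual rating versus untreated controls, 0 (no effect) to 100 (complete control).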

[4] = system: cocklebur (Xanthium strumarium); experiment: Test B pre-/postemergence plant response; conditions: Preemergence
In short: as §2

[5] = system: Surinam grass (Brachiaria decumbens); experiment: Test B pre-/postemergence plant response
In short: as §2

[6] = system: blackgrass (Alopecurus myosuroides); experiment: Test B pre-/postemergence plant response
In short: as §2

[7] = system: bermudagrass (Cynodon dactylon); experiment: Test B pre-/postemergence plant response
In short: as §2

soybean (Glycine max) = experiment: Test B pre-/postemergence plant response
In short: as §2

[8] = system: Italian ryegrass (Lolium multiflorum); experiment: Test B pre-/postemergence plant response
In short: as §2

[9] = system: morningglory (Ipomoea coccinea); experiment: Test B pre-/postemergence plant response
In short: as §2

[10] = system: ragweed (common ragweed, Ambrosia elatior); experiment: Test B pre-/postemergence plant response
In short: as §2

[11] = 250 g ai/ha, flooded paddy test, visual rating on 0 to 100 scale (0 no effect, 100 complete control) after 13 to 15 days
[12] = 62 g ai/ha, scale of 0 to 100 where 0 is no effect and 100 is complete control
[13] = 125 g ai/ha, scale 0 to 100, 0 is no effect, 100 is complete control
[14] = Flood, 31 g ai/ha, scale 0 to 100 (0 no effect, 100 complete control)
[15] = Postemergence, 31 g ai/ha, 0 to 100 scale (0 no effect, 100 complete control)
[16] = Postemergence, 62 g ai/ha, scale 0 to 100 (0 no effect, 100 complete control)
[17] = Postemergence, 125 g ai/ha, scale 0 (no effect) to 100 (complete control), 13 to 15 days
[18] = Postemergence, 250 g ai/ha, scale 0 to 100 (0 no effect, 100 complete control), 13 to 15 days
[19] = Preemergence, 31 g ai/ha, scale 0 to 100 (0 no effect, 100 complete control)
[20] = Preemergence, 62 g ai/ha, scale 0 to 100 (0 no effect, 100 complete control)
[21] = Preemergence, 125 g ai/ha, scale 0 to 100, 0 no effect, 100 complete control
[22] = Preemergence, 250 g ai/ha, 0 to 100 scale

SMILES: CCCCn1c(-c2cc(F)cc(F)c2)ncc(C(=O)C2=C(O)C3CCC(C3)C2=O)c1=O (stereo not drawn) [Compound 245]
- Plant response rating, Flood, Ducksalad [1, 11]: 100
- Plant response rating, Ducksalad [1, 12]: 100
- Plant response rating, Ducksalad [1, 13]: 100
- Ducksalad plant response rating [1, 14]: 100
- Plant response rating, Flood, Barnyardgrass [2, 11]: 65
- Plant response rating, Barnyardgrass [2, 12]: 0
- Plant response rating, Barnyardgrass [2, 13]: 40
- Barnyardgrass plant response rating [2, 14]: 0
- Plant response rating, Flood, Rice (rice (Oryza sativa); [11]): 90
- Plant response rating, Rice (rice (Oryza sativa); [12]): 50
- Plant response rating, Rice (rice (Oryza sativa); [13]): 50
- Rice plant response rating (rice (Oryza sativa); [14]): 50
- Plant response rating, Flood, Sedge, Umbrella [3, 11]: 100
- Plant response rating, Sedge, Umbrella [3, 12]: 100
- Plant response rating, Sedge, Umbrella [3, 13]: 100
- Sedge, Umbrella plant response rating [3, 14]: 60
- Plant response rating, Corn (corn (Zea mays); [15]): 100
- Plant response rating, Corn (corn (Zea mays); [16]): 100
- Plant response rating, Corn (corn (Zea mays); [17]): 100
- Plant response rating, Corn (corn (Zea mays); [18]): 100
- Plant response rating, Corn (corn (Zea mays); [19]): 0
- Plant response rating, Corn (corn (Zea mays); [20]): 5
- Plant response rating, Corn (corn (Zea mays); [21]): 25
- Corn plant response rating (corn (Zea mays); [22]): 65
- Plant response rating, Cocklebur ([4]; 31 g ai/ha, scale 0 to 100 (0 no effect, 100 complete control)): 0
- Plant response rating, Cocklebur ([4]; 62 g ai/ha, scale 0 to 100 (0 no effect, 100 complete control)): 0
- Plant response rating, Cocklebur ([4]; 125 g ai/ha, scale 0 to 100, 0 no effect, 100 complete control): 98
- Cocklebur plant response rating ([4]; 250 g ai/ha, 0 to 100 scale): 100
- Plant response rating, Surinam Grass [5, 15]: 100
- Plant response rating, Surinam Grass [5, 16]: 100
- Plant response rating, Surinam Grass [5, 17]: 100
- Plant response rating, Surinam Grass [5, 18]: 100
- Plant response rating, Surinam Grass [5, 19]: 95
- Plant response rating, Surinam Grass [5, 20]: 100
- Plant response rating, Surinam Grass [5, 21]: 100
- Surinam Grass plant response rating [5, 22]: 100
- Plant response rating, Blackgrass [6, 15]: 40
- Plant response rating, Blackgrass [6, 16]: 70
- Plant response rating, Blackgrass [6, 17]: 80
- Plant response rating, Blackgrass [6, 18]: 80
- Plant response rating, Blackgrass [6, 19]: 0
- Plant response rating, Blackgrass [6, 20]: 5
- Plant response rating, Blackgrass [6, 21]: 30
- Blackgrass plant response rating [6, 22]: 45
- Plant response rating, Bermudagrass [7, 15]: 80
- Plant response rating, Bermudagrass [7, 16]: 100
- Plant response rating, Bermudagrass [7, 17]: 100
- Plant response rating, Bermudagrass [7, 18]: 100
- Plant response rating, Bermudagrass [7, 19]: 98
- Plant response rating, Bermudagrass [7, 20]: 100
- Plant response rating, Bermudagrass [7, 21]: 100
- Bermudagrass plant response rating ([7]; Preemergence, 250 g ai/ha, 0 to 100 scale, 0 no effect, 100 complete control): 100
- Plant response rating, Soybean (soybean (Glycine max); [15]): 95
- Plant response rating, Soybean (soybean (Glycine max); [16]): 98
- Plant response rating, Soybean (soybean (Glycine max); [17]): 100
- Plant response rating, Soybean (soybean (Glycine max); [18]): 100
- Plant response rating, Soybean (soybean (Glycine max); [19]): 0
- Plant response rating, Soybean (soybean (Glycine max); [20]): 10
- Plant response rating, Soybean (soybean (Glycine max); [21]): 55
- Soybean plant response rating (soybean (Glycine max); [22]): 75
- Plant response rating, Ryegrass, Italian [8, 15]: 40
- Plant response rating, Ryegrass, Italian [8, 16]: 50
- Plant response rating, Ryegrass, Italian [8, 17]: 70
- Plant response rating, Ryegrass, Italian [8, 18]: 85
- Plant response rating, Ryegrass, Italian [8, 19]: 0
- Plant response rating, Ryegrass, Italian [8, 20]: 0
- Plant response rating, Ryegrass, Italian [8, 21]: 0
- Ryegrass, Italian plant response rating [8, 22]: 40
- Plant response rating, Morningglory [9, 15]: 90
- Plant response rating, Morningglory [9, 16]: 100
- Plant response rating, Morningglory [9, 17]: 100
- Plant response rating, Morningglory [9, 18]: 100
- Plant response rating, Morningglory [9, 19]: 0
- Plant response rating, Morningglory [9, 20]: 0
- Plant response rating, Morningglory [9, 21]: 65
- Morningglory plant response rating [9, 22]: 100
- Plant response rating, Ragweed [10, 15]: 95
- Plant response rating, Ragweed [10, 16]: 98
- Plant response rating, Ragweed [10, 17]: 100
- Plant response rating, Ragweed [10, 18]: 100
- Plant response rating, Ragweed [10, 19]: 75
- Plant response rating, Ragweed [10, 20]: 85
- Plant response rating, Ragweed [10, 21]: 100
- Ragweed plant response rating [10, 22]: 100
